Where two headings read alike, the source gives them in different places.
Legend:
NAT1 [1] = assay: NAT1 catalytic activity (PABA N-acetylation, HPLC) in lysate of treated MDA-MB-231 cells; format: cell-based, human; conditions: for Ki: MDA-MB-231 cells treated 48 h, read-out: Ki, decrease of NAT1 catalytic activity (PABA N-acetylation); for lowest concentration that significantly decreased NAT1 catalytic activity / lowest concentration that significantly increased NAT1 N-acetylation of PABA: MDA-MB-231 cells, 48 h
Protocol: (§1) In vitro NAT1 enzymatic activity was quantified towards p-aminobenzoic acid (PABA). N-acetyl-PABA was quantified by High Performance Liquid Chromatography (HPLC) as previously described ([Hein et al., 2006]; [Stepp et al., 2018]). Briefly, cells were scaped from the plate and washed in ice-cold Phosphate Buffered Saline (PBS) and lysed in 20 mM sodium phosphate pH 7.4, 1 mM ethylenediaminetetraacetic acid (EDTA), 0.2% triton X-100, 1 mM dithiothreitol (DTT), 100 µM phenylmethanesulfonyl fluoride (PMSF), 1 μg/ml aprotinin, and 2 µM pepstatin A (MilliporeSigma, St. Louis, MO, United States). Cell lysate was centrifuged at 15,000 × g for 10 min, supernatant was recovered, and protein concentration was quantified as mentioned before. NAT1 enzymatic assay reactions containing 50 µL of suitable cell lysate, 300 µM PABA, and AcCoA (1 mM), were incubated at 37°C for 10 min. Reactions were terminated by the addition of 10 µL of 1 M acetic acid, then proteins were precipitated by centrifugation (15,000 × g for 20 min in the cold room) and supernatant was transferred to HPLC vials and injected onto a LiChrospher 100 RP-18 (125 mm × 4 mm; 5 µm) reverse phase column. Reactants and products were eluted with an Agilent 1260 Infinity II system (Agilent Technologies, Santa Clara, CA, United States). Separation of N-acetyl-PABA was achieved using a gradient of 96:4 of 20 mM sodium perchlorate pH 2.5: acetonitrile (ACN) to 88:12 20 mM sodium perchlorate:ACN over 3 min. Absorbance was recorded at 280 nm. Four independent measurements were performed in duplicate for each cell condition and cell line.
(§2) MDA-MB-231 or ZR-75-1 cells were plated in 12-well plates, at a density of 2 × 10^5 cells/well and allowed to attach to the plate overnight. […] After 48 h of drug treatment, plates were recovered and the cells were harvested for NAT1 activity assays, NAT1 mRNA and protein expression quantification as described above. For the siRNA transfection experiments, after 72 h of transfection, cells were harvested and processed as described above for the cells treated with inhibitors.

NAT1b transcript [2] = assay: NAT1b mRNA quantification by qRT-PCR in MDA-MB-231 cells; format: cell-based, human; conditions: 48 h
Protocol: (§3) NAT1 mRNA levels were measured as described previously ([Millner et al., 2012]). Primers were designed to recognize only NAT1b expression. Briefly, total RNA was isolated cells lines using the RNeasy Mini kit (Qiagen, Hilden, GER) followed by removal of contaminating DNA by treatment with Turbo DNA-free (Ambion, Austin, TX, United States). cDNA was synthetized using the High-Capacity Reverse transcriptase kit (Life Technologies, Carlsbad, CA, United States) using 1 µg of total RNA in a 20 µL reaction following manufacturer’s instructions.
as §2

KDAC proteins = assay: KDAC (Sirtuin / HDAC) activity, both breast cancer cell lines (discussion summary); format: cell-based, human; conditions: MDA-MB-231 and ZR-75-1 cell lines
NAT1 [3] = assay: NAT1 acetylation status (acetyl-lysine immunoprecipitation, AcNAT1/NAT1) in ZR-75-1 cells; format: cell-based, human; conditions: 48 h; for acetylation of NAT1 lysine residues, effect in words: vs vehicle; for NAT1 acetylation status, fold increase: vs vehicle control
Protocol: (§4) In order to assess the acetylation status of NAT1 protein, MDA-MB-231(6 × 10^5) and ZR-75-1 (3 × 10^6) cells were seeded onto 100 mm cell culture dishes and allowed to attach overnight. […] After 48-h drug treatment or 72-h siRNA transfection, cells were collected and lysed following the protocol of Signal-Seeker Acetyl-Lysine Detection kit (Citoskeleton, Denver, CO, United States). Briefly, after the incubation period concluded, cells were washed twice with PBS and lysed in ice-cold lysis buffer, 20 mM Tris-HCl (pH 7.4), 5 mM EDTA, 150 mM NaCl, 0.5% Triton X-100, 10 mM sodium butyrate and protease/phosphatase inhibitors cocktail. Cell lysates were incubated on ice for 20 min and isolated by centrifugation at 16,000 × g for 20 min. Supernatants were recovered and protein concentration was measured as described before. 150 µg of lysate was used for the IP; 1/10 of the sample was kept as input control. Thereafter, Acetyl Lysine Affinity Beads were added to the samples and incubated at 4°C for 2 h. Beads were washed three times with the provided wash buffer and the immunoprecipitated proteins were eluted and denatured with 2 × Laemmli buffer and boiled for 5 min. Protein samples were then separated by SDS-PAGE for 1 h at 150 V. Proteins were then transferred to PVDF membranes (Bio-Rad, Hercules, CA, United States) for 2 h at 100 V and blocked for 30 min in 1×fish gelatin (Biotium Inc., Fremont, CA, United States. After blocking, membranes were incubated with rabbit monoclonal anti-NAT1 antibody (ab109114, Abcam, Cambridge, United Kingdom) and mouse monoclonal anti-β-actin, as endogenous control (A2228, Sigma-Aldrich, St. Louis, MO, United States) overnight at 4°C with gentle agitation. The next day, the membranes were washed with TBST and incubated with secondary antibodies IRDye® 800 CW goat anti-rabbit and 680RD goat anti-mouse (LI-COR Biosciences, Lincoln, NE, United States) at room temperature for 1 hour. Finally, plates were washed with TBST and scanned using an Odyssey imaging system (LI-COR Biosciences, Lincoln, NE, United States). After detection of NAT1, the membranes were re-probed for acetyl-lysine-HRP detection using the antibody provided in the kit. Chemiluminescent detection was captured using a Fotodyne imaging system (Fotodyne Inc., Hartland, WI, United States). Densitometric analysis on the immunoblots was performed using ImageJ ([Schneider et al., 2012]) software or IMAGE STUDIO Lite software (LI-COR Biosciences, Lincoln, NE, United States), which enables quantitative analysis of blotting signals. NAT1 and acetyl-lysine levels were normalized to β-actin.

Sirtuin = Sirtuin activity in inhibitor-treated cells (Sirtuin Activity kit, lysate fluorescence); format: cell-based, human
Protocol: (§5) The next day, cells were treated with increasing concentrations, (0–100 µM) of the inhibitor for 48 h. Following incubation, the enzymatic activity of Sirtuin and HDAC proteins was quantified using the Sirtuin Activity kit (MilliporeSigma, St. Louis, MO, United States), according to manufacturer’s instructions. […] Supernatant was recovered ant kept on ice. Samples were normalized to the lowest protein concentration sample using the Bradford protein assay (Bio-Rad, Hercules, CA, United States). Then, 20 µL of diluted cell lysate were transferred into a 96 well plate, the activity reaction mix was prepared as recommended, and the reaction was incubated for 15 min at 37°C.

NAT1 [4] = assay: NAT1 acetylation status (acetyl-lysine immunoprecipitation, AcNAT1/NAT1) in MDA-MB-231 cells; format: cell-based, human; conditions: 48 h, vs vehicle
Protocol: as §4

NAT1 [5] = assay: NAT1 catalytic activity (PABA N-acetylation, HPLC) in lysate of treated ZR-75-1 cells; format: cell-based, human; conditions: for Ki: ZR-75-1 cells treated 48 h, read-out: Ki, decrease of NAT1 catalytic activity (PABA N-acetylation); for lowest concentration that significantly decreased NAT1 catalytic activity / lowest concentration that significantly upregulated NAT1 catalytic activity: ZR-75-1 cells, 48 h
Protocol: as §1, §2

NAT1b transcript [6] = assay: NAT1b mRNA quantification by qRT-PCR in ZR-75-1 cells; format: cell-based, human; conditions: 48 h
Protocol: as §3, §2

HDAC [7] = conditions: MDA-MB-231 cells, vs vehicle control; for lowest concentration that significantly decreased HDAC deacetylase activity: 48 h
Protocol: as §5

HDAC [8] = conditions: ZR-75-1 cells, vs vehicle control
NAT1b transcript [9] = tested on: NAT1b transcript; design: method as in Paterson et al., 2011; conditions: after treatment with TSA; ref Paterson et al., 2011; cited from earlier work
NAT1 [10] = tested on: NAT1; design: method as in Paterson et al., 2011; conditions: after treatment with TSA; ref Paterson et al., 2011; cited from earlier work
NAT1 [11] = tested on: NAT1; design: method as in Butcher et al., 2020; conditions: ref Butcher et al., 2020; cited from earlier work
[12] = MDA-MB-231 cells, 48 h, vs vehicle control
[13] = MDA-MB-231 cells, 48 h treatment, vs vehicle control; read-out: IC50, Sirtuin deacetylase activity
[14] = ZR-75-1 cells, 48 h, vs vehicle control
[15] = ZR-75-1 cells, 48 h treatment, vs vehicle control; read-out: IC50, Sirtuin deacetylase activity
[16] = ZR-75-1 cells, 100 µM, vs vehicle
[17] = read-out: IC50, HDAC deacetylase activity, 48 h treatment

| IC50 (Sirtuin; [13]) | IC50 (Sirtuin; [15]) | SMILES | Ki (NAT1 [1]) | lowest concentration that significantly decreased NAT1 catalytic activity (NAT1 [1]) | NAT1b transcript expression, effect in words (NAT1b transcript [2]; 100 µM, vs vehicle) | dose producing inhibition of KDAC enzymatic activity (KDAC proteins) | acetylation of NAT1 lysine residues, effect in words (NAT1 [3]; 100 µM) | lowest concentration that significantly decreased Sirtuin activity (Sirtuin; [12]) | lowest concentration that significantly inhibited Sirtuin deacetylase activity (Sirtuin; [14]) | acetylated lysine residues of NAT1, effect in words (NAT1 [4]; 100 µM) | Ki (NAT1 [5]) | lowest concentration that significantly decreased NAT1 catalytic activity (NAT1 [5]) | NAT1b transcript expression, effect in words (NAT1b transcript [6]; [16]) | lowest concentration that significantly increased NAT1 N-acetylation of PABA (NAT1 [1]) | lowest concentration that significantly decreased HDAC deacetylase activity (HDAC [7]) | lowest concentration that significantly upregulated NAT1 catalytic activity (NAT1 [5]) | other results |
| --- | --- | --- | --- | --- | --- | --- | --- | --- | --- | --- | --- | --- | --- | --- | --- | --- | --- |
| 50.1 µM | 27.6 µM | N#CC(=Cc1ccc(-c2cc(Cl)ccc2Cl)o1)C(=O)Nc1cccc2ncccc12 [AGK2, 2-cyano-3-[5-(2,5-dichlorophenyl)-2-furanyl]-N-5-quinolinyl-2-propenamide] | 10.8 µM | 1 µM | significantly decreased | 10 µM | increased | 10 µM | 10 µM | increased | 0.55 µM | 1 µM | – | – | – | – | – |
| – | – | NC(=O)C1CCCc2c1[nH]c1ccc(Cl)cc21 (stereo not drawn) [EX527, 6-chloro-2,3,4,9-tetrahydro-1H-carbazole-1-carboxamide] | 7.03 µM | 0.1 µM | significantly decreased | 1 µM | – | 1 µM | 1 µM | increased | 0.39 µM | 0.01 µM | significant decrease | – | – | – | IC50 (Sirtuin; read-out: IC50, Sirtuin deacetylase activity; MDA-MB-231 cells, 48 h treatment, vs vehicle control): 40.6 µM; IC50 (Sirtuin; read-out: IC50, Sirtuin deacetylase activity; ZR-75-1 cells, 48 h treatment, vs vehicle control): 11.8 µM |
| – | – | O=C(CCCCCCC(=O)Nc1ccccc1)NO [SAHA, Vorinostat] | – | – | – | – | – | – | – | – | – | – | – | 10 µM | 10 µM | 10 µM | NAT1b transcript expression, effect in words (NAT1b transcript [2]; 10 and 100 µM, vs vehicle): more NAT1b transcript expression |
| 61.7 µM | 35.8 µM | CC(NC(=O)c1ccccc1N=Cc1c(O)ccc2ccccc12)c1ccccc1 (stereo not drawn) [Sirtinol, 2-[[(2-hydroxy-1-naphthalenyl)methylene]amino]-N-(1-phenylethyl)-benzamide] | 21.9 µM | 1 µM | significantly decreased | 10 µM | increased | 100 µM | 10 µM | increased | 0.02 µM | 0.1 µM | significant decrease | – | – | – | acetylation of NAT1 lysine residues, effect in words (NAT1 [3]; 10 µM): increased |
| – | – | CC(/C=C/C(=O)NO)=C\[C@@H](C)C(=O)c1ccc(N(C)C)cc1 [TSA, Trichostatin A] | – | – | – | 0.1 µM | – | – | – | – | – | – | – | 1 µM | 1 µM | 1 µM | NAT1b transcription, fold increase (NAT1b transcript [2]; 0.01 µM): 3 fold; NAT1b transcript expression, fold increase (NAT1b transcript [2]; 10 µM, vs vehicle): over 10 fold; lowest dose with significant increase of NAT1b transcription (NAT1b transcript [2]): 0.01 µM; NAT1b message expression, fold increase (NAT1b transcript [6]; ZR-75-1 cells, 1 µM): 6 fold; NAT1b transcript expression, fold increase (NAT1b transcript [6]; [16]): 9 fold; NAT1b transcript expression, effect in words (NAT1b transcript [6]; ZR-75-1 cells, 1, 10 and 100 µM, vs vehicle): more robust induction; lowest dose with significant upregulation of NAT1b message expression (NAT1b transcript [6]; ZR-75-1 cells): 1 µM; lowest concentration that significantly inhibited HDAC enzymatic activity (HDAC [8]; 48 h): 0.1 µM; IC50 (HDAC [8]; [17]): 6.4 µM; NAT1 acetylation status, fold increase (NAT1 [3]; 10 µM): 1.8 fold; NAT1 acetylation status, fold increase (NAT1 [3]; 100 µM): 2.4 fold; NAT1 acetylation, fold increase (NAT1 [4]; 10 µM): 1.6 fold; NAT1 acetylation, fold increase (NAT1 [4]; 100 µM): 2.1 fold; IC50 (HDAC [7]; [17]): 13.5 µM; NAT1b transcription (NAT1b transcript [9]): upregulation; NAT1 catalytic activity (NAT1 [10]): increase |
| – | – | NC(=O)c1cccnc1 [nicotinamide] | – | – | – | – | – | – | – | – | – | – | – | – | – | – | acetylation of NAT1 (NAT1 [11]): enhanced |
